According to PMC9996038, “Binding of RPR260243 at the intracellular side of the hERG1 channel pore domain slows closure of the helix bundle crossing gate” (Frontiers in Molecular Biosciences, 2023):

Biological target: T1, hERG1a (human ether-à-go-go-related gene type 1, Kv11.1) (Homo sapiens, UniProt Q12809)
T1 construct: gene KCNH2; EC50 on split hERG1a (residues 1–545 VSD module + residues 546–1,159 pore module, coexpressed)
Assay: two-electrode voltage clamp of channels expressed in Xenopus oocytes (slowing of deactivation)
Format: cell-based

T1 sequence (Q12809 546-1159): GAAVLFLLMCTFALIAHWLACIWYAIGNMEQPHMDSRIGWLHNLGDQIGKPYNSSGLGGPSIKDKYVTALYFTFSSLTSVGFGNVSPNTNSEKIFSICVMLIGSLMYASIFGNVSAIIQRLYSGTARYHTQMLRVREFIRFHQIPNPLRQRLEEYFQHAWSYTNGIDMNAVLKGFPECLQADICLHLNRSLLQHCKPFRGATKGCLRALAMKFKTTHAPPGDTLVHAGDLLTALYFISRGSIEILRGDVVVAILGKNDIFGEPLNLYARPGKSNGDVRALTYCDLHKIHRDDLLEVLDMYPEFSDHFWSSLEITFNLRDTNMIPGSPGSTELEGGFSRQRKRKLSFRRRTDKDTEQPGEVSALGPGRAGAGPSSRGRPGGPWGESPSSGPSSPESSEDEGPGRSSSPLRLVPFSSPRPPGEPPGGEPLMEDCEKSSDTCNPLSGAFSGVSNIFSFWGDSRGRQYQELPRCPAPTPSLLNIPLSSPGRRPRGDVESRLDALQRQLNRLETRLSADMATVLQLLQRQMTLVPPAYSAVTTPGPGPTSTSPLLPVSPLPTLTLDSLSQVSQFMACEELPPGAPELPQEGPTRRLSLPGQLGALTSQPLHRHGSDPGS
T1 sequence (Q12809 1-545 partner): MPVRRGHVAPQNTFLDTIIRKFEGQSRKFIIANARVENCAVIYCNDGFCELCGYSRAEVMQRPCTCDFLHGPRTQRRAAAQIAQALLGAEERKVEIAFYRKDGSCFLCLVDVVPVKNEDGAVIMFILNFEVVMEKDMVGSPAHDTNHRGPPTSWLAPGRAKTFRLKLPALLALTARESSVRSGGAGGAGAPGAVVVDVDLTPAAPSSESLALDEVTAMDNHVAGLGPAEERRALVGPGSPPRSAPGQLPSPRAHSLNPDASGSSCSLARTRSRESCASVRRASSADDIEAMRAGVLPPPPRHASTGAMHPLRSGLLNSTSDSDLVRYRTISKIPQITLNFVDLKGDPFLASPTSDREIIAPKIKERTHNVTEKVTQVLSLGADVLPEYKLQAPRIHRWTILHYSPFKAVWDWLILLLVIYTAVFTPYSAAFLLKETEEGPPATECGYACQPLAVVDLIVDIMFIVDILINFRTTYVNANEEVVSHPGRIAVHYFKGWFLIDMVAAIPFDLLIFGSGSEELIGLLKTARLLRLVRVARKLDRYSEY

COc1ccc2nccc(C(=O)CC[C@@H]3CCN(CC#Cc4cc(F)cc(F)c4F)C[C@@H]3C(=O)O)c2c1 [RPR, (3R,4R)-4-[3-(6-methoxyquinolin-4-yl)-3-oxo-propyl]-1-[3-(2,3,5-trifluorophenyl)-prop-2-ynyl]-piperidine-3-carboxylic acid]
EC50: 7.9 ± 1 µM
